Data on 24 compounds can be found in patent publication US20040224958A1, “Pyridopyrimidinone derivatives for treatment of neurodegenerative disease” (priority 2000, published 2004).

The target in one test is Cdk5/p25 (Homo sapiens, UniProt Q00535). Nature of the test: Cyclin-Dependent Kinase 5 High Throughput Screening (cdk5-HTS) Assay. The class given is biochemical. To be noted: high throughput screen. A digest of the protocol: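 Cdk5/p25 (1.0 μg/mL) phosphorylates GST-RbCOOH (20 μg/mL) in 50 mM Tris pH 7.4 with 10 mM MgCl2 and 20 μM ATP spiked with [γ33P]ATP, 30 min at room temperature. After EDTA stop, substrate captured on glutathione-coated plates; 33P incorporation counted by scintillation; IC50 determined.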

The target in another test is cdk2/cyclinE (Homo sapiens, UniProt P24941). Nature of the test: Cyclin-Dependent Kinase Assay cdk2/cyclinE. To be noted: cdk2/E IC50.
The target in another test is cdk2/cyclinA (Homo sapiens, UniProt P24941). The experiment in a line: Cyclin-Dependent Kinase Assay cdk2/cyclinA. The conditions noted are these: cdk2/A IC50.
The target in a further test is cdk4/D (Homo sapiens, UniProt P11802). The experiment in a line: Cyclin-Dependent Kinase 4 (cdk4) Assay. The class given is biochemical. To be noted: read-out: cdk4/D IC50.
cdk4/D, sequence (P11802 whole entry): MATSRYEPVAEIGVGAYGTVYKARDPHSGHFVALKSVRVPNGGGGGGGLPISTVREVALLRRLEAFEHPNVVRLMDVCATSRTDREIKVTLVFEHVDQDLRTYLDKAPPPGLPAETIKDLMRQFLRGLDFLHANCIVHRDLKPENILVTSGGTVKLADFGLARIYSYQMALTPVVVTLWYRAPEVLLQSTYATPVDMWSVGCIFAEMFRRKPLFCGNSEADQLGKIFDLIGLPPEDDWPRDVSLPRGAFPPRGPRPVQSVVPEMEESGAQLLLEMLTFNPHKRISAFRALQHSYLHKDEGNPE
cdk4/D, sequence (P24385 whole entry, further chain): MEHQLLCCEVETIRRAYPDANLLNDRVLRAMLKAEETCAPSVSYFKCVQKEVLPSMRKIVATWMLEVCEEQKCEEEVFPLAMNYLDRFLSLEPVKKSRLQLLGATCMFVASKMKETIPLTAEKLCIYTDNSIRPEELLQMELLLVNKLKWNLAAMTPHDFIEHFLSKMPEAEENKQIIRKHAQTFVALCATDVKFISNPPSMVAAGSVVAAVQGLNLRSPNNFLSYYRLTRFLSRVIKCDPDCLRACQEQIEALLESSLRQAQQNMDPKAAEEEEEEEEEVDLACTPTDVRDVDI
The target in another test is cdc2/cyclinB (Homo sapiens, UniProt P06493). Nature of the test: Cyclin-Dependent Kinase Assay cdc2/cyclinB.
cdc2/cyclinB, sequence (P06493 whole entry): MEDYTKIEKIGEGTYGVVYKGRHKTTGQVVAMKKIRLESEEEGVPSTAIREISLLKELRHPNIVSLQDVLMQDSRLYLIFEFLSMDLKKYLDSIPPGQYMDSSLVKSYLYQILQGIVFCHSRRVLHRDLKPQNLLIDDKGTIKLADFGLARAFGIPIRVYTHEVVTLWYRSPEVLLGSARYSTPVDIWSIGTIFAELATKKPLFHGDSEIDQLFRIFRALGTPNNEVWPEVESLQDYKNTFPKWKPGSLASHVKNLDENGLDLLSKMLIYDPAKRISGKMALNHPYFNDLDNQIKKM
cdc2/cyclinB, sequence (P14635 whole entry, further chain): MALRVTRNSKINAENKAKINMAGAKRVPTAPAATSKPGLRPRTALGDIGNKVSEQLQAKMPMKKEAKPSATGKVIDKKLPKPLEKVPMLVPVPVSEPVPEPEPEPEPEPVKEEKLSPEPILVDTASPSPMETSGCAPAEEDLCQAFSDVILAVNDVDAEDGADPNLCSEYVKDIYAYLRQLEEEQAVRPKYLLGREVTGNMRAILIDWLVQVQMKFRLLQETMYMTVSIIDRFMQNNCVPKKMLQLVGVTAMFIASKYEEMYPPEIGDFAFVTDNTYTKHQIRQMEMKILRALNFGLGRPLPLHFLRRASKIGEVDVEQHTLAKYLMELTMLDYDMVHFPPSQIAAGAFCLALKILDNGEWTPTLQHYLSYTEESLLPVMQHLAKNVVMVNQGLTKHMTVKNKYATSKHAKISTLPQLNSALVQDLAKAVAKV

Regarding `CCCCn1c(=O)ccc2cnc(Nc3ccc(S(N)(=O)=O)cc3)nc21` [Example 393, 4-(8-Butyl-7-oxo-7,8-dihydro-pyrido[2,3-d]pyrimidin-2-ylamino)-benzenesulfonamide], the IC50 was 9.7 nM at Cdk5/p25; 11 nM against cdk2/cyclinE; 34 nM against cdk2/cyclinA; 180 nM at cdk4/D; 45 nM against cdc2/cyclinB.

As to `CCCCn1c(=O)ccc2cnc(Nc3ccc(OC)c(F)c3)nc21` [Example 394, 8-Butyl-2-(3-fluoro-4-methoxy-phenylamino)-8H-pyrido[2,3-d]pyrimidin-7-one], the IC50 on Cdk5/p25 was 150 nM; against cdk2/cyclinE it was 120 nM; against cdk2/cyclinA, 340 nM; at cdk4/D it was 120 nM; against cdc2/cyclinB, 360 nM.

As for `CCCCn1c(=O)ccc2cnc(Nc3ccc(C#N)c(NC(C)=O)c3)nc21` [Example 395, N-[5-(8-Butyl-7-oxo-7,8-dihydro-pyrido[2,3-d]pyrimidin-2-ylamino)-2-cyano-phenyl]-acetamide], the IC50 on Cdk5/p25 was 91 nM; against cdk2/cyclinE, 85 nM; against cdk2/cyclinA, 340 nM; at cdk4/D it was 90 nM; against cdc2/cyclinB, 220 nM.

In the case of `CCCCn1c(=O)ccc2cnc(Nc3cc(OC)cc(C(F)(F)F)c3)nc21` [Example 396, 8-Butyl-2-(3-methoxy-5-trifluoromethyl-phenylamino)-8H-pyrido[2,3-d]pyrimidin-7-one], the IC50 on Cdk5/p25 came out at 590 nM; on cdk2/cyclinE, 300 nM; against cdk2/cyclinA, 2600 nM; on cdk4/D, 1100 nM; against cdc2/cyclinB it was 600 nM.

As for `CCCCn1c(=O)ccc2cnc(Nc3ccc(F)c(F)c3)nc21` [Example 397, 8-Butyl-2-(3,4-difluoro-phenylamino)-8H-pyrido[2,3-d]pyrimidin-7-one], the IC50 amounted to 81 nM against Cdk5/p25; 75 nM against cdk2/cyclinE; 310 nM at cdk2/cyclinA; 250 nM at cdk4/D; 290 nM on cdc2/cyclinB.

`CCCCn1c(=O)ccc2cnc(Nc3ccc(I)c(Cl)c3)nc21` [Example 398, 8-Butyl-2-(3-chloro-4-iodo-phenylamino)-8H-pyrido[2,3-d]pyrimidin-7-one]: the IC50 on Cdk5/p25 was 88 nM; against cdk2/cyclinE, 350 nM; against cdk2/cyclinA it was 1400 nM; on cdk4/D, 230 nM; on cdc2/cyclinB, 420 nM.

Regarding `CCCCn1c(=O)ccc2cnc(Nc3cc(C)cc(C)c3)nc21` [Example 399, 8-Butyl-2-(3,5-dimethyl-phenylamino)-8H-pyrido[2,3-d]pyrimidin-7-one], the IC50 is 14 nM on Cdk5/p25; 50 nM on cdk2/cyclinE; 310 nM at cdk2/cyclinA; 920 nM on cdk4/D; 63 nM at cdc2/cyclinB.

Consider `CCCCn1c(=O)ccc2cnc(Nc3ccc(C)c(Cl)c3)nc21` [Example 400, 8-Butyl-2-(3-chloro-4-methyl-phenylamino)-8H-pyrido[2,3-d]pyrimidin-7-one], for which the IC50 against Cdk5/p25 turned out to be 38 nM; against cdk2/cyclinE, 56 nM; against cdk2/cyclinA it was 480 nM; at cdk4/D, 170 nM; against cdc2/cyclinB, 120 nM.

On to `CCCCn1c(=O)ccc2cnc(Nc3ccc(Cl)c(C(F)(F)F)c3)nc21` [Example 401, 8-Butyl-2-(4-chloro-3-trifluoromethyl-phenylamino)-8H-pyrido[2,3-d]pyrimidin-7-one], for which the IC50 against Cdk5/p25 came out at 292 nM; against cdk2/cyclinE it was 860 nM; at cdk2/cyclinA, 880 nM; on cdk4/D it was 1300 nM; on cdc2/cyclinB, 1900 nM.

For the compound `CCCCn1c(=O)ccc2cnc(Nc3cccc(S(N)(=O)=O)c3)nc21` [Example 402, 3-(8-Butyl-7-oxo-7,8-dihydro-pyrido[2,3-d]pyrimidin-2-ylamino)-benzenesulfonamide], the IC50 on Cdk5/p25 is 20 nM; on cdk2/cyclinE, 25 nM; on cdk2/cyclinA, 140 nM; on cdk4/D, 87 nM; at cdc2/cyclinB, 58 nM.

In the case of `CCCCn1c(=O)ccc2cnc(Nc3ccc4c(c3)CCCC4=O)nc21` [Example 403, 8-Butyl-2-(5-oxo-5,6,7,8-tetrahydro-naphthalen-2-ylamino)-8H-pyrido[2,3-d]pyrimidin-7-one], the IC50 came out at 23 nM against Cdk5/p25; 39 nM at cdk2/cyclinE; 230 nM against cdk2/cyclinA; 93 nM at cdk4/D; 73 nM at cdc2/cyclinB.

Regarding `CCCCn1c(=O)ccc2cnc(Nc3cc(F)cc(F)c3)nc21` [Example 404, 8-Butyl-2-(3,5-difluoro-phenylamino)-8H-pyrido[2,3-d]pyrimidin-7-one], the IC50 against Cdk5/p25 worked out at 280 nM; against cdk2/cyclinE, 300 nM; against cdk2/cyclinA, 650 nM; on cdk4/D, 1900 nM; against cdc2/cyclinB, 610 nM.

Consider `CC(C)n1c(=O)ccc2cnc(Nc3cccc([N+](=O)[O-])c3)nc21` [Example 406, 8-Isopropyl-2-(3-nitro-phenylamino)-8H-pyrido[2,3-d]pyrimidin-7-one], for which the IC50 is 52.5 nM against Cdk5/p25; 94.7 nM on cdk2/cyclinE; 160 nM against cdk2/cyclinA; 260 nM on cdk4/D; 113 nM against cdc2/cyclinB.

For the compound `CC(C)n1c(=O)ccc2cnc(Nc3ccc(F)c(C(F)(F)F)c3)nc21` [Example 407, 2-(4-Fluoro-3-trifluoromethyl-phenylamino)-8-isopropyl-8H-pyrido[2,3-d]pyrimidin-7-one], the IC50 at Cdk5/p25 came out at 56 nM; against cdk2/cyclinE it was 680 nM; against cdk2/cyclinA it was 460 nM; on cdk4/D, 980 nM; on cdc2/cyclinB it was 320 nM.

As for `Cc1cc(Nc2ncc3ccc(=O)n(C(C)C)c3n2)ccc1F` [Example 408, 2-(4-Fluoro-3-methyl-phenylamino)-8-isopropyl-8H1-pyrido[2,3-d]pyrimidin-7-one], the IC50 on Cdk5/p25 came to 13 nM; against cdk2/cyclinE it was 110 nM; against cdk2/cyclinA, 150 nM; at cdk4/D, 130 nM; on cdc2/cyclinB, 190 nM.

On to `CC(C)n1c(=O)ccc2cnc(Nc3ccc4[nH]ccc4c3)nc21` [Example 409, 2-(1H-Indol-5-ylamino)-8-isopropyl-8H-pyrido[2,3-d]pyrimidin-7-one], for which the IC50 was 54 nM against Cdk5/p25; 99.3 nM at cdk2/cyclinE; 260 nM at cdk2/cyclinA; 44 nM on cdk4/D; 260 nM at cdc2/cyclinB.

Consider `CC(C)n1c(=O)ccc2cnc(Nc3ccc4[nH]nnc4c3)nc21` [Example 410, 2-(1H-Benzotriazol-5-ylamino)-8-isopropyl-8H-pyrido[2,3-d]pyrimidin-7-one], for which the IC50 on Cdk5/p25 turned out to be 44.5 nM; on cdk2/cyclinE, 88 nM; against cdk2/cyclinA it was 135 nM; on cdk4/D, 152 nM; at cdc2/cyclinB, 245 nM.

`CC(C)n1c(=O)ccc2cnc(Nc3ccc(NC(=O)OC(C)(C)C)cc3)nc21` [Example 411, [4-(8-Isopropyl-7-oxo-7,8-dihydro-pyrido[2,3-d]pyrimidin-2-ylamino)-phenyl]-carbamic acid tert-butyl ester]: the IC50 against Cdk5/p25 was 177 nM; at cdk2/cyclinE it was 200 nM; at cdk2/cyclinA it was 263 nM; at cdk4/D, 180 nM; against cdc2/cyclinB, 273 nM.

As to `CC(C)n1c(=O)ccc2cnc(Nc3cc(Cl)c(O)c(Cl)c3)nc21` [Example 412, 2-(3,5-Dichloro-4-hydroxy-phenylamino)-8-isopropyl-8H-pyrido[2,3-d]pyrimidin-7-one], the IC50 at Cdk5/p25 is 278 nM; against cdk2/cyclinE, 512 nM; at cdk2/cyclinA, 713 nM; on cdk4/D it was 2000 nM; against cdc2/cyclinB it was 715 nM.

Regarding `CC(C)n1c(=O)ccc2cnc(Nc3ccc(O)c(Cl)c3)nc21` [Example 413, 2-(3-Chloro-4-hydroxy-phenylamino)-8-isopropyl-8H-pyrido[2,3-d]pyrimidin-7-one], the IC50 was 43.5 nM against Cdk5/p25; 52.3 nM against cdk2/cyclinE; 138 nM against cdk2/cyclinA; 180 nM at cdk4/D; 68 nM on cdc2/cyclinB.

As to `CC(=O)Nc1ccc(Nc2ncc3ccc(=O)n(C(C)C)c3n2)cc1` [Example 414, N-[4-(8-Isopropyl-7-oxo-7,8-dihydro-pyrido[2,3-d]pyrimidin-2-ylamino)-phenyl]-acetamide], the IC50 at Cdk5/p25 was determined as 38.5 nM; against cdk2/cyclinE, 91 nM; at cdk2/cyclinA, 155 nM; on cdk4/D, 51 nM; against cdc2/cyclinB it was 165 nM.

`CCCCn1c(=O)ccc2cnc(Nc3cc([N+](=O)[O-])ccc3F)nc21` [Example 415, 8-Butyl-2-(2-fluoro-5-nitro-phenylamino)-8H-pyrido[2,3-d]pyrimidin-7-one]: the IC50 was 290 nM against Cdk5/p25; 240 nM at cdk2/cyclinE; 1100 nM against cdk2/cyclinA; 490 nM on cdk4/D; 1100 nM on cdc2/cyclinB.

For the compound `COc1cc(Nc2ncc3ccc(=O)n(C(C)C)c3n2)cc(OC)c1OC` [Example 417, 8-Isopropyl-2-(3,4,5-trimethoxy-phenylamino)-8H-pyrido[2,3-d]pyrimidin-7-one], the IC50 against Cdk5/p25 came out at 170 nM; on cdk2/cyclinE, 590 nM; at cdk2/cyclinA, 870 nM; at cdk4/D it was 3400 nM; against cdc2/cyclinB, 880 nM.

Take `CC(C)n1c(=O)ccc2cnc(Nc3ccc(S(N)(=O)=O)cc3)nc21` [Example 418, 4-(8-Isopropyl-7-oxo-7,8-dihydro-pyrido[2,3-d]pyrimidin-2-ylamino)-benzenesulfonamide]: the IC50 at Cdk5/p25 stood at 15 nM; at cdk2/cyclinE, 27 nM; against cdk2/cyclinA it was 33 nM; at cdk4/D it was 130 nM; against cdc2/cyclinB, 90 nM.
